# Patent publication US5075224A, “Prepro-LHRH C-terminal peptide DNA” (Genentech, Inc., priority 1991, dated 1991)
# Ends that are not written are not given here. Peptide text beside a SMILES is read from it.
# Test system: Pituitary cells from female Sprague-Dawley rats
# Assay: LH and FSH release from rat pituitary cell culture
# Type: cell-based
# Procedure: Pituitary cells from female Sprague-Dawley rats were established in cell culture by the method of K. Nikolics et al., "Peptides" 2: 65-73 (1981). 1 ml of about 1×10^-8 molar concentration of GAP or LHRH in medium 199 (a nutrient medium) was added to a four day pituitary cell culture per 5×10^5 cells. After 4 hours incubation at 37° C. in 5 percent CO2 /95 percent air the cell culture supernatant fluids were assayed for release of LH and FSH.
# The anterior pituitary cell culture from female Sprague-Dawley rats was prepared as described in Example 6. In FIG. 7A the indicated concentrations of GAP (open circles, 10^-11 M; open squares, 3×10^-11 M; closed circles 10^-10 M; open squares, triangle 10^-8 M) were incubated with 5×10^5 cells/ml medium in 24-well culture plates for the indicated time. Media were assayed for PRL and values were expressed in terms of rPRL-RP-2 reference protein (National Pituitary and Hormone Program). The points are means ± standard deviation of four parallel culture wells of which duplicate samples were assayed by RIA. Basal levels were determined from eight parallel wells. The curves shown represent data obtained in three to five independent cell cultures.
# [1] = 10^-8 M test sample, 4 hours incubation at 37° C., four day pituitary cell culture, supernatant
compound,measurement,setting,value
CC(C)C[C@H](NC(=O)CNC(=O)[C@H](Cc1ccc(O)cc1)NC(=O)[C@H](CO)NC(=O)[C@H](Cc1c[nH]c2ccccc12)NC(=O)[C@H](Cc1c[nH]cn1)NC(=O)[C@@H]1CCC(=O)N1)C(=O)N[C@@H](CCCNC(=N)N)C(=O)N1CCC[C@H]1C(=O)NCC(N)=O [LHRH],FSH (pg)/5 × 10^5 cells,[1],11403 ± 350 pg/5 × 10^5 cells
same,LH (pg)/5 × 10^5 cells,[1],30503 ± 3342 pg/5 × 10^5 cells
same,EC50,"rat anterior pituitary cells, read-out: Half-maximal stimulation of LH release",0.8 nM
DAENLIDSFQEIVKEVGQLAETQRFECTTHQPRSPLRDLKGALESLIEEETGQKKI [GAP],ED50 of stimulation of FSH secretion,,~0.5 nM
"CC(C)C[C@H](NC(=O)[C@H](CC(=O)O)NC(=O)[C@H](CCCNC(=N)N)NC(=O)[C@H](CC(C)C)NC(=O)[C@@H]1CCCN1C(=O)[C@H](CO)NC(=O)[C@H](CCCNC(=N)N)NC(=O)[C@@H]1CCCN1C(=O)[C@H](CCC(N)=O)NC(=O)[C@H](Cc1c[nH]cn1)NC(=O)[C@@H](NC(=O)[C@@H](NC(=O)[C@@H](N)CS)[C@@H](C)O)[C@@H](C)O)C(=O)N[C@@H](CCCCN)C(=O)O [CTP-core polypeptide of Example 4, NH2 -cys-thr-thr-his-gln-pro-arg-ser-pro-leu-arg-asp-leu-lys-COOH] (H-CTTHQPRSPLRDLK-OH)",activity in LH and FSH release (in words),rat pituitary cells,"active in LH and FSH release, albeit at higher concentrations than required for GAP"
